The values below come from patent US20260184712A1, “Heterocyclic Compounds as ENT Inhibitors and Compounds for Use in the Treatment of Cancers” (iTeos Belgium SA, priority 2022, published 2026).

The first assay has as its target T1, human ENT1 (Homo sapiens, UniProt Q99808).
T1 construct: JAR cells expressing ENT1 were purchased from ATCC; host or cells: JAR cells
T1 sequence (Q99808 1-456): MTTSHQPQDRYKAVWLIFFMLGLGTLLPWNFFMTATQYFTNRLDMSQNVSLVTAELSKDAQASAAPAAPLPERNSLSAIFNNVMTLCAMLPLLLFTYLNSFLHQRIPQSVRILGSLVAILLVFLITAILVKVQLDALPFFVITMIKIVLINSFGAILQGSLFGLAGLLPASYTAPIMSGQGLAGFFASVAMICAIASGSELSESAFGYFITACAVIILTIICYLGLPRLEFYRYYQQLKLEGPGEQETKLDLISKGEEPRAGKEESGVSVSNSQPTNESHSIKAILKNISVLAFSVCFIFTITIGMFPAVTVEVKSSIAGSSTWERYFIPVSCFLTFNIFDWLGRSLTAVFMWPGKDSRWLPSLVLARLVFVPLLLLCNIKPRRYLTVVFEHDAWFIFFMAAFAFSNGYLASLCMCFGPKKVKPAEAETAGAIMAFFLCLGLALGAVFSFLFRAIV
The experiment in a line: ENT1 binding assay (competition with Sahenta-DY647 on JAR cells). Conditions: Binding Assay IC50, competition with SAHENTA-DY647 binding; IC50 categorized. The protocol: Compounds of the present disclosure were assayed to show ability to bind to human ENT1. The assay is a competition between a compound of interest and Sahenta-DY647, an ENT1 inhibitor that emits fluorescence (Ex=630 nm, Em=670 nm). By measuring the fluorescence at the end of the assay, one can assess the binding potency of the compounds tested. The compounds of the present disclosure were tested and compared to known ENT inhibitors, dilazep and NBMPR:
JAR cells expressing ENT1 were purchased from ATCC® (HTB-144TM). Cells were cultured in RPMI 1640 medium (LONZA®, #BE12-702F/U1) supplemented with 10% FBS (GIBCO®, #10270-106), 10 mM Hepes (LONZA®, #BE17-737E), 1 mM Sodium Pyruvate (LONZA®, #BE13-115E), and 2% Penicillin/Streptomycin (LONZA®, #DE17-603E) at 37° C. and 5% CO2.
The assay was conducted with the following buffer on the day of the assay: HBSS (LONZA®, #LO-527F) supplemented with 10 mM Hepes (LONZA®, #BE17-737E) and 0.1% BSA (Miltenyi®, #130-091-376).
JAR cells were resuspended in the described buffer. The compounds of interest and Sahenta-DY647 were diluted 200× with the described buffer.
A total of 50,000 cells were pre-incubated for 30 min at 4° C. with the compounds of the present disclosure before adding the corresponding amount of Sahenta-DY647 (100 nM) to the minimal concentration at Bmax and incubating for an additional 30 min at 4° C. The total volume of the reaction was 100 μL (50 μL of cells, 25 μL of the compounds of the present disclosure, and 25 μL of Sahenta-DY647) in a U-bottom 96 well plate (Greiner®, #650-180). The plates were washed 2× by centrifugation (4 min, 400 rcf at 4° C.) in the same buffer. Cells were re-suspended in 70 μL of the buffer and 50 μL was transferred to a Black 384 Optiplate (PerkinElmer®, #6007279). Fluorescence (Ex=630 nm, Em=670 nm) was acquired on a Spectramax i3x (Molecular Devices®).
Dose-response data from the compounds were analyzed with Graphpad Prism 9.1.1@software, using nonlinear regression applied to a sigmoidal dose-response model and the following equation:
Y=Bottom+(Top-Bottom)/(1+10^((LogIC50−X)*HillSlope)), with a shared bottom and top between the test reagent and dipyridamole.
Data from multiple experiments were compiled by taking the average pIC50 value for the reagent in question±the standard deviation (s.d.) and expressing it as an average IC50 value in nM.
The inhibitory effect of the test compound was expressed as a percentage of the inhibition of SAHENTA-DY647 binding.
A word on the IC50: it is the concentration that inhibits the measured activity by half. Consider `C[C@H]1O[C@@H](n2cnc3c(COc4ccc(C#N)cc4)ncnc32)[C@H](O)[C@@H]1O` [Compound 280], for which the IC50 is above 500 nM.

The same assay, now with this note: competition with SAHENTA-DY647 binding; IC50 categorized; read-out: Binding Assay IC50.
As for `Cc1nc(OCc2ccc([N+](=O)[O-])cc2)c2ncn([C@@H]3O[C@H](C)[C@@H](O)[C@H]3O)c2n1` [Compound 259], the IC50 is above 500 nM. As for `C[C@H]1O[C@@H](n2c(N[C@H]3CC[C@@](C)(O)CC3)nc3c(OCc4ccc(C(F)(F)F)cc4)ncnc32)[C@H](O)[C@@H]1O` [Compound 126], the IC50 fell in the range of 1 to 20 nM.

As to `C[C@H]1O[C@@H](n2cnc3c(C(=O)NCc4ccc(C(F)(F)F)cc4)ncnc32)[C@H](O)[C@@H]1O` [Compound 298], the IC50 is above 500 nM.

With `C[C@H]1O[C@@H](n2c(N[C@H]3CC[C@](C)(O)CC3)nc3c(OCc4ccc(F)cc4)ncnc32)[C@H](O)[C@@H]1O` [Compound 129], the IC50 was in the range of 1 to 20 nM. Still for that read-out and setting: under `C[C@H]1O[C@@H](n2cnc3c(NCc4ccc(C(=O)N(C)C)cc4)ncnc32)[C@H](O)[C@@H]1O` [Compound 370] stands above 500 nM; under `C[C@H]1O[C@@H](n2cnc3c(OCc4ccc5cnn(C)c5c4)ncnc32)[C@H](O)[C@@H]1O` [Compound 333], above 500 nM. The same measure, in the same setting: under `C[C@H]1O[C@@H](n2cnc3c(NCc4ccc(-n5ccnn5)cc4)ncnc32)[C@H](O)[C@@H]1O` [Compound 326] stands above 500 nM. Same read-out and setting: in the case of `C[C@H]1O[C@@H](n2c(Nc3cn[nH]c3)nc3c(OCc4ccc([N+](=O)[O-])cc4)ncnc32)[C@H](O)[C@@H]1O` [Compound 35] it was below 1 nM; in that of `Cc1nc(=O)c2cc(COc3ncnc4c3ncn4[C@@H]3O[C@H](C)[C@@H](O)[C@H]3O)ccc2[nH]1` [Compound 367], above 500 nM; in that of `C[C@H]1O[C@@H](n2c(NC3CCCC3)nc3c(OCc4ccc(C(F)(F)F)cc4)ncnc32)[C@H](O)[C@@H]1O` [Compound 92], 1 to 20 nM. Regarding `CC(CCO)Nc1nc2c(OCc3ccc(OC(F)(F)F)cc3)ncnc2n1[C@@H]1O[C@H](C)[C@@H](O)[C@H]1O` (stereo partly shown) [Compound 99], the IC50 was 1 to 20 nM. For `C[C@H]1O[C@@H](n2cnc3c(NCCc4ccc([N+](=O)[O-])cc4)ncnc32)[C@H](O)[C@@H]1O` [Compound 252], the half-maximal inhibitory concentration (IC50) was above 500 nM.

Turning to `C[C@H]1O[C@@H](n2cnc3c(C(=O)NCc4ccc(C#N)c(F)c4)ncnc32)[C@H](O)[C@@H]1O` [Compound 369], the IC50 was above 500 nM.

As for `C[C@H]1O[C@@H](n2cnc3c(OCCc4ccc([S+](C)[O-])cc4)ncnc32)[C@H](O)[C@@H]1O` (stereo partly shown) [Compound 408], the half-inhibitory concentration (IC50) is above 500 nM. Still for that read-out and setting: in the case of `C[C@H]1OC(n2cnc3c(COc4ccc(C#N)c(F)c4)ncnc32)[C@H](O)[C@@H]1O` (stereo partly shown) [Compound 258] it was above 500 nM; in that of `CCOC(=O)CC[C@H]1O[C@@H](n2cnc3c(OCc4ccc([N+](=O)[O-])cc4)ncnc32)[C@H](O)[C@@H]1O` [Compound 219], above 500 nM. In the case of `C[C@H]1O[C@@H](n2cnc3c(SCc4cccc(S(N)(=O)=O)c4)ncnc32)[C@H](O)[C@@H]1O` [Compound 273], the IC50 is above 500 nM. The same measure, in the same setting: in the case of `C[C@H]1O[C@@H](n2cnc3c(NCc4ccc(S(C)(=O)=O)cc4)ncnc32)[C@H](O)[C@@H]1O` [Compound 277] it was above 500 nM; in that of `C[C@H]1O[C@@H](n2cnc3c(OCc4c(F)cc(C#N)cc4F)ncnc32)[C@H](O)[C@@H]1O` [Compound 269], above 500 nM. `C[C@H]1O[C@@H](n2cnc3c(N[C@H]4C[C@@H]4c4ccc(Cl)cc4)ncnc32)[C@H](O)[C@@H]1O` [Compound 327]: the IC50 was above 500 nM. On the same count and under the same terms, under `C[C@H]1O[C@@H](n2cnc3c(OCc4cccc(S(C)(=O)=O)c4)ncnc32)[C@H](O)[C@@H]1O` [Compound 332] stands above 500 nM.

For the compound `Cc1nccn1-c1ccc(COc2ncnc3c2ncn3[C@@H]2O[C@H](C)[C@@H](O)[C@H]2O)cc1` [Compound 381], the half-inhibitory concentration (IC50) is above 500 nM. Same read-out and setting: in the case of `C[C@H]1O[C@@H](n2c(NCCN3CCN(C)CC3)nc3c(OCc4ccc([N+](=O)[O-])cc4)ncnc32)[C@H](O)[C@@H]1O` [Compound 33] it was 20 to 500 nM; in that of `C[C@H]1O[C@@H](n2cnc3c(OCc4ccc5c(c4)OCCO5)ncnc32)[C@H](O)[C@@H]1O` [Compound 363], above 500 nM. The same measure, in the same setting: under `C[C@H]1O[C@@H](n2cnc3c(-c4nc(-c5ccc([N+](=O)[O-])cc5)no4)ncnc32)[C@H](O)[C@@H]1O` [Compound 420] stands above 500 nM. Turning to `C[C@H]1O[C@@H](n2cnc3c(NCc4ccccc4C(N)=O)ncnc32)[C@H](O)[C@@H]1O` [Compound 374], the IC50 was above 500 nM.

As to `COc1ccc(COc2ncnc3c2ncn3[C@@H]2O[C@H](C)[C@@H](O)[C@H]2O)cc1OC1CCCC1` [Compound 346], the IC50 was above 500 nM. Same read-out and setting: in the case of `CC1OC(n2c(NC3CC(C)(O)C3)nc3c(N4CCc5ccc([N+](=O)[O-])cc5C4)ncnc32)C(O)C1O` (single isomer, unassigned) [Compound 141] it was below 1 nM. On the same count and under the same terms, under `C[C@H]1O[C@@H](n2cnc3c(COc4ccc(OC(F)(F)F)cc4)ncnc32)[C@H](O)[C@@H]1O` [Compound 288] stands above 500 nM. On the same count and under the same terms, under `C[C@H]1O[C@@H](n2c(NC3CC3)nc3c(OCc4ccc(C#N)cc4)ncnc32)[C@H](O)[C@@H]1O` [Compound 39] stands 1 to 20 nM. On to `C[C@H]1O[C@@H](n2cnc3c(C(=O)NCc4ccc5c(ccn5C)c4)ncnc32)[C@H](O)[C@@H]1O` [Compound 351], for which the IC50 is above 500 nM. The same measure, in the same setting: in the case of `C[C@H]1O[C@@H](n2cnc3c(C(=O)Nc4ccc([N+](=O)[O-])cc4)ncnc32)[C@H](O)[C@@H]1O` [Compound 341] it was above 500 nM; in that of `C[C@H]1O[C@@H](n2c(NCc3ncn(C)n3)nc3c(OCc4ccc(C#N)cc4)ncnc32)[C@H](O)[C@@H]1O` [Compound 69], 20 to 500 nM. Take `C[C@H]1O[C@@H](n2cnc3c(NCc4ccccc4C#N)ncnc32)[C@H](O)[C@@H]1O` [Compound 357]: the IC50 is above 500 nM. Still for that read-out and setting: under `CC(C)Nc1nc2c(N3CCc4ccccc4C3)ncnc2n1[C@@H]1O[C@H](C)[C@@H](O)[C@H]1O` [Compound 212] stands 20 to 500 nM; under `C[C@H]1O[C@@H](n2c(NC3CCOCC3)nc3c(N4CCc5ccc([N+](=O)[O-])cc5C4)ncnc32)[C@H](O)[C@@H]1O` [Compound 148], 1 to 20 nM; under `Cc1cc(COc2ncnc3c2nc(NC2CCCC2)n3[C@@H]2O[C@H](C)[C@@H](O)[C@H]2O)ccn1` [Compound 15], 20 to 500 nM. As to `C[C@H]1O[C@@H](n2c(N[C@H]3C[C@@H](O)C3)nc3c(OCc4ccc([N+](=O)[O-])cc4)ncnc32)[C@H](O)[C@@H]1O` [Compound 48], the IC50 is 1 to 20 nM.

As for `C[C@H]1O[C@@H](n2c(N[C@H]3CC[C@@H](O)CC3)nc3c(OCc4ccc([N+](=O)[O-])cc4)ncnc32)[C@H](O)[C@@H]1O` [Compound 56], the IC50 was below 1 nM. Same read-out and setting: in the case of `C[C@H]1O[C@@H](n2cnc3c(OCc4ccccc4S(C)(=O)=O)ncnc32)[C@H](O)[C@@H]1O` [Compound 375] it was above 500 nM; in that of `COc1ccccc1COc1ncnc2c1ncn2[C@@H]1O[C@H](C)[C@@H](O)[C@H]1O` [Compound 325], above 500 nM. Regarding `C[C@H]1O[C@@H](n2cnc3c(OCc4ccc(-n5cccn5)cc4)ncnc32)[C@H](O)[C@@H]1O` [Compound 328], the IC50 was above 500 nM.
